Measured values: the supplement of paper PMC10733146

How the values were obtained:
Assay in all cases: viability relative to DMSO control (fraction); higher = less drug effect (more viable cells)
Details in all cases: 48 h
Roscovitine = compound: CC[C@H](CO)Nc1nc(NCc2ccccc2)c2ncn(C(C)C)c2n1 [Roscovitine]
Summary of the method: (§1)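 Using 384-well plates with compounds already plated at five concentrations, one well per concentration, 4 × 10^4 primary mononuclear tumour cells were added per well. Cells were Ficoll-isolated from blood or bone marrow or came from processed lymph node, fresh or cryopreserved. They were kept for 48 h at 37 °C and 5% CO2 in RPMI-1640 supplemented with penicillin/streptomycin, L-glutamine and human serum, and viability was read as CellTiter-Glo luminescence relative to the median of 16 inner DMSO wells.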

Midostaurin hydrate = compound: CO[C@@H]1[C@H](N(C)C(=O)c2ccccc2)C[C@H]2O[C@]1(C)n1c3ccccc3c3c4c(c5c6ccccc6n2c5c31)C(=O)NC4 [Midostaurin hydrate]
Summary of the method: as §1

Etoposide = compound: COc1cc([C@@H]2c3cc4c(cc3[C@@H](O[C@@H]3O[C@@H]5CO[C@@H](C)O[C@H]5[C@H](O)[C@H]3O)[C@H]3COC(=O)[C@H]23)OCO4)cc(OC)c1O [Etoposide]
Summary of the method: as §1

Entospletinib = compound: c1cn2cc(-c3ccc4cn[nH]c4c3)nc(Nc3ccc(N4CCOCC4)cc3)c2n1 [Entospletinib]
Summary of the method: as §1

Bendamustine = compound: Cn1c(CCCC(=O)O)nc2cc(N(CCCl)CCCl)ccc21 [Bendamustine]
Summary of the method: as §1

CPI-169 = compound: CCS(=O)(=O)N1CCC([C@@H](C)n2c(C)c(C(=O)NCc3c(OC)cc(C)[nH]c3=O)c3ccccc32)CC1 [CPI-169]
Summary of the method: as §1

Palbociclib = compound: CC(=O)c1c(C)c2cnc(Nc3ccc(N4CCNCC4)cn3)nc2n(C2CCCC2)c1=O [Palbociclib]
Summary of the method: as §1

SGC 0946 = compound: CC(C)N(CCCNC(=O)Nc1ccc(C(C)(C)C)cc1)C[C@H]1O[C@@H](n2cc(Br)c3c(N)ncnc32)[C@H](O)[C@@H]1O [SGC 0946]
Summary of the method: as §1

Barasertib = compound: CCN(CCCOc1ccc2c(Nc3cc(CC(=O)Nc4cccc(F)c4)[nH]n3)ncnc2c1)CCOP(=O)(O)O [Barasertib]
Summary of the method: as §1

Selinexor = compound: O=C(/C=C\n1cnc(-c2cc(C(F)(F)F)cc(C(F)(F)F)c2)n1)NNc1cnccn1 [Selinexor]
Summary of the method: as §1

Everolimus = compound: CO[C@H]1C[C@@H]2CC[C@@H](C)[C@@](O)(O2)C(=O)C(=O)N2CCCC[C@H]2C(=O)O[C@H]([C@H](C)C[C@@H]2CC[C@@H](OCCO)[C@H](OC)C2)CC(=O)[C@H](C)/C=C(\C)[C@@H](O)[C@@H](OC)C(=O)[C@H](C)C[C@H](C)/C=C/C=C/C=C/1C [Everolimus]
Summary of the method: as §1

EPZ-6438 = compound: CCN(c1cc(-c2ccc(CN3CCOCC3)cc2)cc(C(=O)NCc2c(C)cc(C)[nH]c2=O)c1C)C1CCOCC1 [EPZ-6438]
Summary of the method: as §1

Tofacitinib = compound: C[C@@H]1CCN(C(=O)CC#N)C[C@@H]1N(C)c1ncnc2[nH]ccc12 [Tofacitinib]
Summary of the method: as §1

## primary T-PLL patient cells (S008)
Roscovitine; 0.032 µM
  viability: 0.978
Roscovitine; 0.16 µM
  viability: 1.06
Roscovitine; 0.8 µM
  viability: 0.972
Roscovitine; 4 µM
  viability: 1.05
Roscovitine; 20 µM
  viability: 0.949
Midostaurin hydrate; 0.024 µM
  viability: 1.01
Midostaurin hydrate; 0.12 µM
  viability: 0.968
Midostaurin hydrate; 0.6 µM
  viability: 1.01
Midostaurin hydrate; 3 µM
  viability: 1.04
Midostaurin hydrate; 15 µM
  viability: 0.958
Etoposide; 0.032 µM
  viability: 1.01
Etoposide; 0.16 µM
  viability: 1.09
Etoposide; 0.8 µM
  viability: 1.03
Etoposide; 4 µM
  viability: 1.03
Etoposide; 20 µM
  viability: 0.945
Entospletinib; 0.024 µM
  viability: 1.01
Entospletinib; 0.12 µM
  viability: 1.06
Entospletinib; 0.6 µM
  viability: 0.955
Entospletinib; 3 µM
  viability: 0.995
Entospletinib; 15 µM
  viability: 1.04
Bendamustine; 0.032 µM
  viability: 1.05
Bendamustine; 0.16 µM
  viability: 1.09
Bendamustine; 0.8 µM
  viability: 0.992
Bendamustine; 4 µM
  viability: 0.983
Bendamustine; 20 µM
  viability: 0.977
CPI-169; 0.024 µM
  viability: 1
CPI-169; 0.12 µM
  viability: 0.999
CPI-169; 0.6 µM
  viability: 1.03
CPI-169; 3 µM
  viability: 1.02
CPI-169; 15 µM
  viability: 1.05
Palbociclib; 0.024 µM
  viability: 1.05
Palbociclib; 0.12 µM
  viability: 1.02
Palbociclib; 0.6 µM
  viability: 1.02
Palbociclib; 3 µM
  viability: 1.01
Palbociclib; 15 µM
  viability: 0.778
SGC 0946; 0.024 µM
  viability: 1.02
SGC 0946; 0.12 µM
  viability: 1.14
SGC 0946; 0.6 µM
  viability: 0.98
SGC 0946; 3 µM
  viability: 1.04
SGC 0946; 15 µM
  viability: 0.868
Barasertib; 0.0008 µM
  viability: 0.937
Barasertib; 0.004 µM
  viability: 0.926
Barasertib; 0.02 µM
  viability: 0.945
Barasertib; 0.1 µM
  viability: 1.03
Barasertib; 0.5 µM
  viability: 1.06
Selinexor; 0.008 µM
  viability: 1.03
Selinexor; 0.04 µM
  viability: 0.983
Selinexor; 0.2 µM
  viability: 0.879
Selinexor; 1 µM
  viability: 0.693
Selinexor; 5 µM
  viability: 0.58
Everolimus; 0.0032 µM
  viability: 1.03
Everolimus; 0.016 µM
  viability: 0.954
Everolimus; 0.08 µM
  viability: 1.01
Everolimus; 0.4 µM
  viability: 1
Everolimus; 2 µM
  viability: 1.04
EPZ-6438; 0.024 µM
  viability: 0.986
EPZ-6438; 0.12 µM
  viability: 1
EPZ-6438; 0.6 µM
  viability: 1.04
EPZ-6438; 3 µM
  viability: 1
EPZ-6438; 15 µM
  viability: 0.918
Tofacitinib; 0.024 µM
  viability: 0.919
Tofacitinib; 0.12 µM
  viability: 0.906
Tofacitinib; 0.6 µM
  viability: 0.922
Tofacitinib; 3 µM
  viability: 0.913
Tofacitinib; 15 µM
  viability: 0.927

## primary AML patient cells (S002)
Roscovitine; 0.032 µM
  viability: 0.867
Roscovitine; 0.16 µM
  viability: 0.907
Roscovitine; 0.8 µM
  viability: 0.899
Roscovitine; 4 µM
  viability: 0.896
Roscovitine; 20 µM
  viability: 0.466
Midostaurin hydrate; 0.024 µM
  viability: 1.04
Midostaurin hydrate; 0.12 µM
  viability: 0.936
Midostaurin hydrate; 0.6 µM
  viability: 1.07
Midostaurin hydrate; 3 µM
  viability: 1.25
Midostaurin hydrate; 15 µM
  viability: 1.14
Etoposide; 0.032 µM
  viability: 0.974
Etoposide; 0.16 µM
  viability: 1.08
Etoposide; 0.8 µM
  viability: 0.923
Etoposide; 4 µM
  viability: 0.955
Etoposide; 20 µM
  viability: 0.453
Entospletinib; 0.024 µM
  viability: 1.03
Entospletinib; 0.12 µM
  viability: 1.03
Entospletinib; 0.6 µM
  viability: 0.895
Entospletinib; 3 µM
  viability: 1.08
Entospletinib; 15 µM
  viability: 1.07
Bendamustine; 0.032 µM
  viability: 1.11
Bendamustine; 0.16 µM
  viability: 1.2
Bendamustine; 0.8 µM
  viability: 1.14
Bendamustine; 4 µM
  viability: 1.09
Bendamustine; 20 µM
  viability: 0.724
CPI-169; 0.024 µM
  viability: 1.12
CPI-169; 0.12 µM
  viability: 0.923
CPI-169; 0.6 µM
  viability: 0.962
CPI-169; 3 µM
  viability: 0.967
CPI-169; 15 µM
  viability: 0.785
Palbociclib; 0.024 µM
  viability: 1.04
Palbociclib; 0.12 µM
  viability: 0.965
Palbociclib; 0.6 µM
  viability: 0.956
Palbociclib; 3 µM
  viability: 0.966
Palbociclib; 15 µM
  viability: 0.542
SGC 0946; 0.024 µM
  viability: 1.1
SGC 0946; 0.12 µM
  viability: 1.16
SGC 0946; 0.6 µM
  viability: 0.833
SGC 0946; 3 µM
  viability: 1.16
SGC 0946; 15 µM
  viability: 0.9
Barasertib; 0.0008 µM
  viability: 0.856
Barasertib; 0.004 µM
  viability: 0.855
Barasertib; 0.02 µM
  viability: 0.834
Barasertib; 0.1 µM
  viability: 0.904
Barasertib; 0.5 µM
  viability: 0.848
Selinexor; 0.008 µM
  viability: 0.831
Selinexor; 0.04 µM
  viability: 0.679
Selinexor; 0.2 µM
  viability: 0.584
Selinexor; 1 µM
  viability: 0.375
Selinexor; 5 µM
  viability: 0.332
Everolimus; 0.0032 µM
  viability: 0.867
Everolimus; 0.016 µM
  viability: 0.955
Everolimus; 0.08 µM
  viability: 0.815
Everolimus; 0.4 µM
  viability: 0.813
Everolimus; 2 µM
  viability: 0.757
EPZ-6438; 0.024 µM
  viability: 1.18
EPZ-6438; 0.12 µM
  viability: 1.05
EPZ-6438; 0.6 µM
  viability: 0.999
EPZ-6438; 3 µM
  viability: 0.991
EPZ-6438; 15 µM
  viability: 0.884
Tofacitinib; 0.024 µM
  viability: 0.794
Tofacitinib; 0.12 µM
  viability: 0.765
Tofacitinib; 0.6 µM
  viability: 0.82
Tofacitinib; 3 µM
  viability: 0.703
Tofacitinib; 15 µM
  viability: 0.656
